Reference: patent US20260176320A1, “MODULATORS OF G-PROTEIN COUPLED RECEPTORS” (priority 2018, published 2026)
Read-outs that look alike come from different tables or passages of the source.

What was measured:
GLP-1R = GLP-1R (Homo sapiens, UniProt P43220); assay: HitHunter cAMP assay (GLP-1R); type: cell-based; settings: cAMP, read-out: (Emax) GLP-1R
Experimental: (§1) Suspension cells were harvested and resuspended in 1×HBSS (+10 mM HEPES, 625 μM IBMX, 0.2% BSA) according to the following procedure: 5 μL of 2× cell suspension+1× antibody were added to each well, where the optimal cell density was 10,000 cells per well in a low volume 384-well plate. Agonist serial dilutions in a separate 384 well dilution plate in a 22-point series of 2× dilutions of agonist in DMSO were performed as follows. 80 μL of the highest concentration of Agonist/DMSO was added to well No. 1. 40 μL was removed from well No. 1 and added it to well No. 2, followed by gentle mixing. […] This process was repeated until well No. 22. Additional serial dilutions for additional agonists were set up in a similar manner. 50 nL of each 2× agonist serial dilution was added in duplicate to the designated agonist rows of the assay plate using the Labcyte ECHO. Assay plate was incubated for 30 minutes at room temperature. Following agonist incubation, 5 μL of cAMP Antibody Reagent was added to all wells. […] Plates were spun down briefly. Assay plate was incubated for 1 hour at room temperature in the dark for the immunocompetition reaction to occur. […] Plates were spun down briefly. Assay plate was incubated O/N at room temperature in the dark. Samples were read on Tecan i-control plate reader using luminescence mode with 300 ms integration time. Data analysis was performed using GraphPad Prism.

GIP-R = target: T1, GIP-R (Homo sapiens, UniProt P48546); assay: HitHunter cAMP assay (GIP-R); type: cell-based; settings: cAMP, read-out: (Emax) GIP-R
T1 sequence (P48546 22-466): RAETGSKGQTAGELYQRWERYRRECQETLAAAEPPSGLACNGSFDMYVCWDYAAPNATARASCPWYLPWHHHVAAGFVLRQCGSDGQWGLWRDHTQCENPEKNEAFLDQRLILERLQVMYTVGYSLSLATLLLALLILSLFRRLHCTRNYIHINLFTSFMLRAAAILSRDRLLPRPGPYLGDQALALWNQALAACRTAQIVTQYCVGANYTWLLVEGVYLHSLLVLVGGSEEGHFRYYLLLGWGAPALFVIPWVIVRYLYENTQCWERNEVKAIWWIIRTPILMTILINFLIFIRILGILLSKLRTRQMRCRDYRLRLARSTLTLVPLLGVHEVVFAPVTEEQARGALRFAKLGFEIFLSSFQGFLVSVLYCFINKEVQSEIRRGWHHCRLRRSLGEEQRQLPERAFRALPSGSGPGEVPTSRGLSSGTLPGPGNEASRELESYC
Experimental: as §1

Sequence of GLP-1R (P43220 24-463): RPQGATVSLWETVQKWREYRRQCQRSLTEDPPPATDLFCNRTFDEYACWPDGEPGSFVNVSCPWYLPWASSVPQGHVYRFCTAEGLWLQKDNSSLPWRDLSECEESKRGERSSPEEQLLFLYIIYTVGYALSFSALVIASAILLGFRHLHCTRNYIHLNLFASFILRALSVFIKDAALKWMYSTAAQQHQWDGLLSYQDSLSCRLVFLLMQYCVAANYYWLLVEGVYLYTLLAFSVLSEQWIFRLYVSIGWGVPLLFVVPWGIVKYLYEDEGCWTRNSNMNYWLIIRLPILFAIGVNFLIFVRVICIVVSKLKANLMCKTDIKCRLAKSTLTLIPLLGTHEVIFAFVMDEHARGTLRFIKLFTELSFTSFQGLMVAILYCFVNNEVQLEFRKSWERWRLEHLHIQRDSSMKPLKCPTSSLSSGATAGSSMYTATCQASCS

| SMILES | Emax (GLP-1R; Table 3) [%] | Emax (GLP-1R; Table 3A) [%] | Emax (GIP-R; Table 3) [%] | Emax (GIP-R; Table 3A) [%] |
| --- | --- | --- | --- | --- |
| CCCCCCCCCCCCCCCC(=O)N[C@@H](CCC(=O)NCCCC[C@H](NC(=O)[C@H](CO)NC(=O)[C@@H]1CCCN1C(=O)[C@@H]1CCCN1C(=O)[C@@H]1CCCN1C(=O)[C@H](C)NC(=O)CNC(=O)[C@H](CO)NC(=O)[C@H](CO)NC(=O)[C@@H]1CCCN1C(=O)CNC(=O)CNC(=O)[C@H](C)NC(=O)[C@H](CC(C)C)NC(=O)[C@H](CC(C)C)NC(=O)[C@H](Cc1c[nH]c2ccccc12)NC(=O)[C@H](CC(N)=O)NC(=O)[C@@H](NC(=O)[C@H](Cc1ccccc1)NC(=O)[C@H](CCC(=O)O)NC(=O)C(C)(C)NC(=O)[C@H](C)NC(=O)[C@H](C)NC(=O)[C@H](CCC(N)=O)NC(=O)[C@H](CCCCN)NC(=O)[C@H](CC(=O)O)NC(=O)[C@H](CC(C)C)NC(=O)[C@H](Cc1ccc(O)cc1)NC(=O)[C@@H](NC(=O)[C@H](CO)NC(=O)[C@H](Cc1ccc(O)cc1)NC(=O)[C@H](CC(=O)O)NC(=O)[C@H](CO)NC(=O)[C@@H](NC(=O)[C@H](Cc1ccccc1)NC(=O)[C@@H](NC(=O)CNC(=O)[C@H](CCC(=O)O)NC(=O)CSCC(=O)NCCN1C[C@H](C)CC1=O)[C@@H](C)O)[C@@H](C)O)[C@@H](C)CC)C(C)C)C(N)=O)C(=O)O (single isomer, unassigned) [Compound 28] | 101 | 101 | 57 | 57 |
| CCCCCCCCCCCCCCCC(=O)N[C@@H](CCC(=O)NCCCC[C@H](NC(=O)[C@H](CO)NC(=O)[C@@H]1CCCN1C(=O)[C@@H]1CCCN1C(=O)[C@@H]1CCCN1C(=O)[C@H](C)NC(=O)CNC(=O)[C@H](CO)NC(=O)[C@H](CO)NC(=O)[C@@H]1CCCN1C(=O)CNC(=O)CNC(=O)[C@H](C)NC(=O)[C@H](CC(C)C)NC(=O)[C@H](CC(C)C)NC(=O)[C@H](Cc1c[nH]c2ccccc12)NC(=O)[C@H](CC(N)=O)NC(=O)[C@@H](NC(=O)[C@H](Cc1ccccc1)NC(=O)[C@H](CCC(=O)O)NC(=O)C(C)(C)NC(=O)[C@H](C)NC(=O)[C@H](C)NC(=O)[C@H](CCC(N)=O)NC(=O)[C@H](CCCCN)NC(=O)[C@H](CC(=O)O)NC(=O)[C@H](CC(C)C)NC(=O)[C@H](Cc1ccc(O)cc1)NC(=O)[C@@H](NC(=O)[C@H](CO)NC(=O)[C@H](Cc1ccc(O)cc1)NC(=O)[C@H](CC(=O)O)NC(=O)[C@H](CO)NC(=O)[C@@H](NC(=O)[C@H](Cc1ccccc1)NC(=O)[C@@H](NC(=O)CNC(=O)[C@H](CCC(=O)O)NC(=O)CSCC(=O)NCCN1C(=O)C[C@@H](CC)C1=O)[C@@H](C)O)[C@@H](C)O)[C@@H](C)CC)C(C)C)C(N)=O)C(=O)O (single isomer, unassigned) [Compound 61] | 96 | 96 | 56 | 56 |
| CCCCCCCCCCCCCCCC(=O)N[C@@H](CCC(=O)NCCCC[C@H](NC(=O)[C@H](CO)NC(=O)[C@@H]1CCCN1C(=O)[C@@H]1CCCN1C(=O)[C@@H]1CCCN1C(=O)[C@H](C)NC(=O)CNC(=O)[C@H](CO)NC(=O)[C@H](CO)NC(=O)[C@@H]1CCCN1C(=O)CNC(=O)CNC(=O)[C@H](C)NC(=O)[C@H](CC(C)C)NC(=O)[C@H](CC(C)C)NC(=O)[C@H](Cc1c[nH]c2ccccc12)NC(=O)[C@H](CC(N)=O)NC(=O)[C@@H](NC(=O)[C@H](Cc1ccccc1)NC(=O)[C@H](CCC(=O)O)NC(=O)C(C)(C)NC(=O)[C@H](C)NC(=O)[C@H](C)NC(=O)[C@H](CCC(N)=O)NC(=O)[C@H](CCCCN)NC(=O)[C@H](CC(=O)O)NC(=O)[C@H](CC(C)C)NC(=O)[C@H](Cc1ccc(O)cc1)NC(=O)[C@@H](NC(=O)[C@H](CO)NC(=O)[C@H](Cc1ccc(O)cc1)NC(=O)[C@H](CC(=O)O)NC(=O)[C@H](CO)NC(=O)[C@@H](NC(=O)[C@H](Cc1ccccc1)NC(=O)[C@@H](NC(=O)CNC(=O)[C@H](CCC(=O)O)NC(=O)CSCC(=O)NCCN1C(=O)C[C@H](CC)C1=O)[C@@H](C)O)[C@@H](C)O)[C@@H](C)CC)C(C)C)C(N)=O)C(=O)O (single isomer, unassigned) [Compound 62] | 101 | 101 | 48 | 48 |
| CCCCCCCCCCCCCCCC(=O)N[C@@H](CCC(=O)NCCCC[C@H](NC(=O)[C@H](CO)NC(=O)[C@@H]1CCCN1C(=O)[C@@H]1CCCN1C(=O)[C@@H]1CCCN1C(=O)[C@H](C)NC(=O)CNC(=O)[C@H](CO)NC(=O)[C@H](CO)NC(=O)[C@@H]1CCCN1C(=O)CNC(=O)CNC(=O)[C@H](C)NC(=O)[C@H](CC(C)C)NC(=O)[C@H](CC(C)C)NC(=O)[C@H](Cc1c[nH]c2ccccc12)NC(=O)[C@H](CC(N)=O)NC(=O)[C@@H](NC(=O)[C@H](Cc1ccccc1)NC(=O)[C@H](CCC(=O)O)NC(=O)C(C)(C)NC(=O)[C@H](C)NC(=O)[C@H](C)NC(=O)[C@H](CCC(N)=O)NC(=O)[C@H](CCCCN)NC(=O)[C@H](CC(=O)O)NC(=O)[C@H](CC(C)C)NC(=O)[C@H](Cc1ccc(O)cc1)NC(=O)[C@@H](NC(=O)[C@H](CO)NC(=O)[C@H](Cc1ccc(O)cc1)NC(=O)[C@H](CC(=O)O)NC(=O)[C@H](CO)NC(=O)[C@@H](NC(=O)[C@H](Cc1ccccc1)NC(=O)[C@@H](NC(=O)CNC(=O)[C@H](CCC(=O)O)NC(=O)CSCC(=O)NCCN1C(=O)[C@@H](C)[C@H](C)C1=O)[C@@H](C)O)[C@@H](C)O)[C@@H](C)CC)C(C)C)C(N)=O)C(=O)O (single isomer, unassigned) [Compound 63] | 91 | 91 | 24 | 24 |
| CCCCCCCCCCCCCCCC(=O)N[C@@H](CCC(=O)NCCCC[C@H](NC(=O)[C@H](CO)NC(=O)[C@@H]1CCCN1C(=O)[C@@H]1CCCN1C(=O)[C@@H]1CCCN1C(=O)[C@H](C)NC(=O)CNC(=O)[C@H](CO)NC(=O)[C@H](CO)NC(=O)[C@@H]1CCCN1C(=O)CNC(=O)CNC(=O)[C@H](C)NC(=O)[C@H](CC(C)C)NC(=O)[C@H](CC(C)C)NC(=O)[C@H](Cc1c[nH]c2ccccc12)NC(=O)[C@H](CC(N)=O)NC(=O)[C@@H](NC(=O)[C@H](Cc1ccccc1)NC(=O)[C@H](CCC(=O)O)NC(=O)C(C)(C)NC(=O)[C@H](C)NC(=O)[C@H](C)NC(=O)[C@H](CCC(N)=O)NC(=O)[C@H](CCCCN)NC(=O)[C@H](CC(=O)O)NC(=O)[C@H](CC(C)C)NC(=O)[C@H](Cc1ccc(O)cc1)NC(=O)[C@@H](NC(=O)[C@H](CO)NC(=O)[C@H](Cc1ccc(O)cc1)NC(=O)[C@H](CC(=O)O)NC(=O)[C@H](CO)NC(=O)[C@@H](NC(=O)[C@H](Cc1ccccc1)NC(=O)[C@@H](NC(=O)CNC(=O)[C@H](CCC(=O)O)NC(=O)CSCC(=O)NCCN1C[C@@H](C)CC1=O)[C@@H](C)O)[C@@H](C)O)[C@@H](C)CC)C(C)C)C(N)=O)C(=O)O (single isomer, unassigned) [Compound 64] | 97 | 97 | 35 | 35 |
| CCCCCCCCCCCCCCCC(=O)N[C@@H](CCC(=O)NCCCC[C@H](NC(=O)[C@H](CO)NC(=O)[C@@H]1CCCN1C(=O)[C@@H]1CCCN1C(=O)[C@@H]1CCCN1C(=O)[C@H](C)NC(=O)CNC(=O)[C@H](CO)NC(=O)[C@H](CO)NC(=O)[C@@H]1CCCN1C(=O)CNC(=O)CNC(=O)[C@H](C)NC(=O)[C@H](CC(C)C)NC(=O)[C@H](CC(C)C)NC(=O)[C@H](Cc1c[nH]c2ccccc12)NC(=O)[C@H](CC(N)=O)NC(=O)[C@@H](NC(=O)[C@H](Cc1ccccc1)NC(=O)[C@H](CCC(=O)O)NC(=O)C(C)(C)NC(=O)[C@H](C)NC(=O)[C@H](C)NC(=O)[C@H](CCC(N)=O)NC(=O)[C@H](CCCCN)NC(=O)[C@H](CC(=O)O)NC(=O)[C@H](CC(C)C)NC(=O)[C@H](Cc1ccc(O)cc1)NC(=O)[C@@H](NC(=O)[C@H](CO)NC(=O)[C@H](Cc1ccc(O)cc1)NC(=O)[C@H](CC(=O)O)NC(=O)[C@H](CO)NC(=O)[C@@H](NC(=O)[C@H](Cc1ccccc1)NC(=O)[C@@H](NC(=O)CNC(=O)[C@H](CCC(=O)O)NC(=O)CSCC(=O)NCCN1C(=O)CC[C@H]1C)[C@@H](C)O)[C@@H](C)O)[C@@H](C)CC)C(C)C)C(N)=O)C(=O)O (single isomer, unassigned) [Compound 74] | 92 | 92 | 47 | 47 |
